{"source": "patent US20240293401A1", "about": "“COMBINATION THERAPY WITH AN LXR AGONIST AND AN INHIBITOR COMPOUND” (Asteroid Therapeutics, priority 2023, published 2024)", "key": {"[1]": {"test_system": "glioblastoma, prostate cancer, and breast cancer cells", "conditions": "cited from earlier work"}, "Abca1": {"test_system": "Abca1", "assay": "Mouse study: expression of the LXR target gene Abca1 in the brain after 5 days of daily dosing", "format": "in vivo, mice", "conditions": "for Average ABCA1 FC vs. vehicle (brain): daily for 5 days, 4 hours post dose on day 5", "experimental": "(§1) Mice were dosed daily with either: • a. the LXR agonist GW3965 orally at specified concentrations for 5-days, • b. the LXR inverse agonist SR9238 intraperitoneally at specified concentrations for 5-days, or • c. both drugs simultaneously at specified concentrations for 5-days.\n(§2) Four hours after the final treatment on day 5, mice were euthanized and tissues were collected."}, "[2]": {"assay": "Mouse study: liver triglycerides after 5 days of daily dosing", "format": "in vivo, mice", "conditions": "for Average liver trig: daily for 5 days, 4 hours post dose on day 5", "experimental": "as §1, §2"}, "β-cells": {"test_system": "β-cells", "conditions": "cited from earlier work"}, "[3]": {"conditions": "SR9238 30 mg/kg intraperitoneally"}, "[4]": {"conditions": "SR9238 60 mg/kg intraperitoneally"}}, "data": [{"smiles": "CC(C)CC[C@@H](O)[C@@H](C)[C@H]1CC[C@H]2[C@@H]3CC=C4C[C@@H](O)CC[C@]4(C)[C@H]3CC[C@]12C", "note": "[22(R)-hydroxycholesterol]", "values": [{"measurement": "proliferation of glioblastoma, prostate cancer, and breast cancer cells (in words)", "setting": "[1]", "result": "suppress the proliferation"}]}, {"smiles": "CC(C)[C@@H](O)CC[C@@H](C)[C@H]1CC[C@H]2[C@@H]3CC=C4C[C@@H](O)CC[C@]4(C)[C@H]3CC[C@]12C", "note": "[24(S)-hydroxycholesterol]", "values": [{"measurement": "proliferation of glioblastoma, prostate cancer, and breast cancer cells (in words)", "setting": "[1]", "result": "suppress the proliferation"}]}, {"smiles": "O=C(O)Cc1cccc(OCCCN(Cc2cccc(C(F)(F)F)c2Cl)CC(c2ccccc2)c2ccccc2)c1", "note": "[GW-3965]", "values": [{"measurement": "Average ABCA1 FC vs. vehicle (brain)", "setting": "Abca1; GW-3965 15 mg/kg orally", "result": 1.6}, {"measurement": "Average ABCA1 FC vs. vehicle (brain)", "setting": "Abca1; GW-3965 30 mg/kg orally", "result": 2.0}, {"measurement": "Average ABCA1 FC vs. vehicle (brain)", "setting": "Abca1; GW-3965 60 mg/kg orally", "result": 2.8}, {"measurement": "expression of the LXR target gene Abca1 (in words)", "setting": "Abca1; GW-3965 alone, 5 days of daily treatment, brains of mice", "result": "increased expression"}, {"measurement": "Average liver trig", "setting": "[2]; GW-3965 15 mg/kg orally", "result": 16.3, "unit": "mg/g"}, {"measurement": "Average liver trig", "setting": "[2]; GW-3965 30 mg/kg orally", "result": 18.4, "unit": "mg/g"}, {"measurement": "Average liver trig", "setting": "[2]; GW-3965 60 mg/kg orally", "result": 29.2, "unit": "mg/g"}, {"measurement": "liver triglyceride concentrations (in words)", "setting": "[2]; GW-3965 alone, 5 days of daily treatment", "result": "increased liver triglyceride concentrations"}, {"measurement": "effect on β-cells (in words)", "setting": "β-cells", "result": "interfere with mitochondrial metabolism and metabolism-independent processes in β-cells"}]}, {"smiles": "CCOC(=O)c1ccc(CN(Cc2ccc(-c3cccc(S(C)(=O)=O)c3)cc2)S(=O)(=O)c2c(C)cc(C)cc2C)o1", "note": "[SR9238]", "values": [{"measurement": "Average ABCA1 FC vs. vehicle (brain)", "setting": "Abca1; [3]", "result": 0.9}, {"measurement": "Average ABCA1 FC vs. vehicle (brain)", "setting": "Abca1; [4]", "result": 1.2}, {"measurement": "Average liver trig", "setting": "[2]; [3]", "result": 7.78, "unit": "mg/g"}, {"measurement": "Average liver trig", "setting": "[2]; [4]", "result": 8.4, "unit": "mg/g"}]}, {"smiles": "O=S(=O)(c1ccccc1)N(CC(F)(F)F)c1ccc(C(O)(C(F)(F)F)C(F)(F)F)cc1", "note": "[T0901317]", "values": [{"measurement": "effect on β-cells (in words)", "setting": "β-cells", "result": "interfere with mitochondrial metabolism and metabolism-independent processes in β-cells"}]}]}
